Source: patent US5312816A, “Method of combatting osteoporosis in mammalian subjects, utilizing organic boron compounds” (priority 1993, dated 1994)
pIC50: −log10 of the molar value.

Tests used:
Calcium = assay: Serum and urine calcium levels in vivo; settings: Cf1 male mice, 8 mg/kg/day I.P. 14 days, N=6
Phosphorus = assay: Serum and urine inorganic phosphorus levels in vivo; settings: Cf1 male mice, 8 mg/kg/day I.P. 14 days, N=6
Cathepsin [1] = assay: Human leukocyte cathepsin; type: cell-based; settings: read-out: Cathepsin IC50; Table XII; human leukocytes, 60 min incubation
Description: 5. Human peripheral leukocytes, RPMI-1788
(§1) 2. Acid Cathepsin D -azocasein-pH 5.0, hydrolytic azo-peptide produce 366 nm.

Acid phosphatase [2] = assay: Human osteoporosis fibroblasts acid phosphatase activity; type: cell-based; settings: read-out: Acid Phosphatase IC50; Table X; human osteoporosis fibroblasts
Description: (§2) 1. Acid phosphatase -beta glycerol-3-phosphate, pH 5.0, released IP 720 nm.

Cf1 male mice [3] = assay: Writhing reflex, 0.6% acetic acid; type: in vivo; parameters: response vs control in vivo: dose or concentration left out as unconfirmed; settings: Mus musculus, ip, read-out: Writhing Reflex Cf1 Mice
[4] = test system: Prostaglandin cyclooxygenase; assay: Mouse macrophage prostaglandin cyclooxygenase activity; type: cell-based; settings: read-out: Prostaglandin Cyclooxygenase IC50; Table VIII; mouse macrophages, 60 min incubation
Description: 3. Mouse macrophages J774A.1 BALB/c
(§3) Prostaglandin synthetase purified beef seminal vesicle ^3 H arachidonic acid (86.2 Ci/mmol), tlc separation.

Acid phosphatase [5] = assay: Mouse macrophage acid phosphatase activity; type: cell-based; settings: read-out: Acid Phosphatase IC50; Table VII; mouse macrophage cultured cells, 60 min incubation
in vivo = settings: mouse, Table 1, N=6
Method: Amine borane compounds (0 to 100 mg/kg) were administered to CF1 male mice as a single injection with six mice for each dosage. Mice were weighed daily and the number of deaths was recorded each day for a 14 day period. The LD50 value was determined by the procedure of S.C. Gad and C.S. Weil, "Statistics for Toxicologists" in Principles and Methods of Toxicology, A.W. Hayes, Ed., 2nd Edition, P 435-483 Raven Press, New York 1982.

Cf1 male mice [6] = assay: Writhing reflex, 0.6% acetic acid; type: in vivo; settings: Table 1; Indomethacin 10 mg/kg
Method: Writhing reflex- Cf1 -male mice- 0.6% acetic acid I.P. drugs administered @20 mg/kg/ I.P. 20 min. later - the # of stretches/10 min.
Hendershot, L.C., et al, J.

Aryl sulphatase [7] = assay: Mouse macrophage aryl sulphatase activity; type: cell-based; settings: read-out: Aryl Sulphatase IC50; Table VII; mouse macrophage cultured cells, 60 min incubation
Acid phosphatase [8] = assay: Mouse hepatic lysosomal acid phosphatase activity; type: biochemical; settings: for pIC50: Table V, mouse hepatic, 60 min incubation
Description: (§4) 1. Cf1 male mouse hepatic 10% homogenates in 0.25M sucrose+0.001MEDTA,pH 7.2.
(§5) Lysosomal Enzymes - free and total [triton X-100].
as §2
Acid phosphatase activity -

Trypsin [9] = assay: Mouse macrophage trypsin (BAEE) activity; type: cell-based; settings: read-out: Trypsin BAEE IC50; Table VIII; mouse macrophages, 60 min incubation
Elastase [10] = assay: Mouse macrophage elastase activity; type: cell-based; settings: read-out: Elastase IC50; Table VIII; mouse macrophages, 60 min incubation
Prostaglandin synthetase = molecular target: T1, Prostaglandin synthetase (Bos taurus, UniProt O62664); assay: Prostaglandin synthetase (cyclooxygenase), purified beef seminal vesicle; type: biochemical
T1 construct: Prostaglandin synthetase purified beef seminal vesicle; from tissue
T1 sequence (O62664 25-600): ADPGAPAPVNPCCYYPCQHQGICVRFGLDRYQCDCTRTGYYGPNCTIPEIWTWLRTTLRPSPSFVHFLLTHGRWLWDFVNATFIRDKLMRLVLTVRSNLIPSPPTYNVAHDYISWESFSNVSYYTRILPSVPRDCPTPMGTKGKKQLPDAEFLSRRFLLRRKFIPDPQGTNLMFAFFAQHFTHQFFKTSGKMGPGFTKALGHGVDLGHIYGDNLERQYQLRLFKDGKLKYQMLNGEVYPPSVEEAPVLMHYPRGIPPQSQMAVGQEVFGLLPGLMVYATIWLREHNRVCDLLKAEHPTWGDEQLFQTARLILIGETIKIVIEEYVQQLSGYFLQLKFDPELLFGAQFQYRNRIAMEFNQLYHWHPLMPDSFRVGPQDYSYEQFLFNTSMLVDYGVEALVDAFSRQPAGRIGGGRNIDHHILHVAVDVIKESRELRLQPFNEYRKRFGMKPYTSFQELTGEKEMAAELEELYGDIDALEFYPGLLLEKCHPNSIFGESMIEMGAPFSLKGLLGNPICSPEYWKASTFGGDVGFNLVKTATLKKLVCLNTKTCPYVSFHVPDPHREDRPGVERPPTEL
Description: as §3

Acid phosphatase [11] = assay: Rat PMNs acid phosphatase activity; type: cell-based; settings: 5 × 10^-6 M, N=6; 5 µM
Description: (§6) 2. PMNs-polymorphonuclear neutrophils-rat peritoneal cavity 0.5% oyster glycogen.
as §2

Trypsin [12] = assay: Human osteoporosis fibroblasts trypsin (BAEE) activity; type: cell-based; settings: read-out: Trypsin BAEE IC50; Table XI; human osteoporosis fibroblasts, 60 min incubation
Description: 1. Trypsin- N-benzoyl-L-arginine ethyl ester pH 8.0, hydrolytic product 253 nm.

[13] = test system: Hepatic oxidative phosphorylation; assay: Hepatic oxidative phosphorylation, Gilson oxygraph; type: biochemical, mouse; settings: 10^-6 M; 1 µM
Description: as §4

Sprague Dawley male rats [14] = assay: Chronic adjuvant arthritis screen, Mycobacterium butyricum; type: in vivo; settings: Table 1; Indomethacin 10 mg/kg
Cathepsin D [15] = molecular target: T2, Cathepsin D (Homo sapiens, UniProt P07339); assay: Human osteoporosis fibroblasts cathepsin D (azo-casein) activity; type: cell-based; settings: read-out: Cathepsin D IC50; Table X; human osteoporosis fibroblasts, DMEM +10% FCS + P/S
T2 construct: azocasein assay pH 5.0
Description: Osteoporosis Human Fibroblast-CRL-1140, Be SA1

Cathepsin D [16] = molecular target: T3, Cathepsin D (Mus musculus, UniProt P18242); assay: Mouse hepatic lysosomal cathepsin D activity; type: biochemical; settings: for pIC50: read-out: Cathepsin D IC50, Table V, mouse hepatic, 60 min incubation
T3 construct: azocasein assay pH 5.0
Description: as §4, §5, §1
Cathepsin azo casein activity -

Cathepsin [17] = molecular target: T4, Cathepsin (Rattus norvegicus, UniProt P24268); assay: Rat PMNs cathepsin activity; type: cell-based; settings: pH 5; 5 × 10^-6 M, N=6; read-out: Rat PMNs Cathep.
T4 construct: azocasein assay pH 5.0
Description: as §6, §1

Aryl sulphatase [18] = assay: Human osteoporosis fibroblasts aryl sulphatase activity; type: cell-based; settings: read-out: Aryl Sulphatase IC50; Table X; human osteoporosis fibroblasts
Description: 3. Aryl sulphatase- p-nitrocatechol sulfate, pH
5. 8 p-nitro-catechol product 510 nm.

Elastase [19] = assay: Human osteoporosis fibroblasts elastase activity; type: cell-based; settings: read-out: Elastase IC50; Table XI; human osteoporosis fibroblasts, 60 min incubation
Description: 2. Elastase- N-succinyl-L-alanyl-L-alanine-p-nitroanilide, pH 8.0, p-nitro anilide 410 nm.

cAMP = assay: PMNs cAMP levels, Gilman's radioimmune assay; type: cell-based, rat; settings: 5 × 10^-6 M, N=6
Description: as §6
cAMP levels Gilman's radioimmune assay. ^3 H(G)Cyclic-3', 5'-adenosine monophosphate.

[20] = test system: Prostaglandin cyclooxygenase; assay: Human osteoporosis fibroblasts prostaglandin cyclooxygenase activity; type: cell-based; settings: read-out: Prostaglandin Cyclooxygense IC50, Table XI, 60 min incubation
Sprague Dawley male rats [21] = assay: Anti-pleurisy screen, Evans blue + carrageenan; type: in vivo; settings: Table 1
Cf1 male mice [22] = assay: Anti-inflammatory screen, Winter's test, 2% carrageenan hind foot; type: in vivo; settings: Table 1; drugs 8 or 10 mg/kg I.P. 2X; Indomethacin 10 mg/kg
Method: Anti-inflammatory Screen- Cf1 - male mice-Winter's Test 2% carrageenan S.C. plantar surface of hind foot, drugs administered @8 or 10 mg/kg I.P. 2X
Winter, C.A., et al, Proc. Soc.

Hydroxyproline = assay: Serum and urine hydroxyproline levels in vivo; settings: Cf1 male mice, 8 mg/kg/day I.P. 14 days, N=6
Sprague Dawley Rats = assay: Anti-inflammatory activity in Sprague Dawley rats; type: in vivo; settings: Table IV; 8 mg/kg I.P.
[23] = molecular target: Clostridium histolyticum Collagenase Type II; assay: Commercial collagenase type II; type: biochemical; settings: Table IX; commercial enzyme preparation
Description: 4. Collagenase II, Clostridium histolyticum, cartilage collagen.

5'-lipoxygenase = molecular target: T5, 5'-lipoxygenase (Mus musculus, UniProt P48999); assay: Mouse hepatic 5'-lipoxygenase activity; type: biochemical
T5 construct: Cf1 male mouse hepatic 10% homogenates; from tissue; host or cells: CF1 male mouse liver, 10% homogenate
T5 sequence (P48999 1-674): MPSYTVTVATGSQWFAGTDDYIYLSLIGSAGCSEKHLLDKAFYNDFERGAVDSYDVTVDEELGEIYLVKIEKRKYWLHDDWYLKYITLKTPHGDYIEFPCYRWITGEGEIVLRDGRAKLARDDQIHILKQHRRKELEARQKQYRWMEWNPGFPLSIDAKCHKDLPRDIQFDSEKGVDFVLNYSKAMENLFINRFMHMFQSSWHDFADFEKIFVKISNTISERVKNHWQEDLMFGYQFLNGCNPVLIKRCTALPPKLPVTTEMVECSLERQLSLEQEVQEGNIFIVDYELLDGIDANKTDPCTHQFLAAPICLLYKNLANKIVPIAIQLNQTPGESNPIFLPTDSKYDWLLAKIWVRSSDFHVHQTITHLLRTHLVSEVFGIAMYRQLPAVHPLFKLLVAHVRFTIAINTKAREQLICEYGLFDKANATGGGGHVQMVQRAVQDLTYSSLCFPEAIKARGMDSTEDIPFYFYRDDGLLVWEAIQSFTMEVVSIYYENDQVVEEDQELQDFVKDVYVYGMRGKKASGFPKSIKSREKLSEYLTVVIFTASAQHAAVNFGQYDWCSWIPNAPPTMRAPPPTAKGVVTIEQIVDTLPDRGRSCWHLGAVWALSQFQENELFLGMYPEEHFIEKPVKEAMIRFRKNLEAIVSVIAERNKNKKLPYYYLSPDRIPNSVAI
Description: as §4
5'-lipoxygenase Mylari, B.L., et al, J. Med.

[24] = test system: urinary excretion of calcium, magnesium, phosphorus; settings: in the diet at 3 mg/day; cited from earlier work

T3 sequence (P18242 65-410): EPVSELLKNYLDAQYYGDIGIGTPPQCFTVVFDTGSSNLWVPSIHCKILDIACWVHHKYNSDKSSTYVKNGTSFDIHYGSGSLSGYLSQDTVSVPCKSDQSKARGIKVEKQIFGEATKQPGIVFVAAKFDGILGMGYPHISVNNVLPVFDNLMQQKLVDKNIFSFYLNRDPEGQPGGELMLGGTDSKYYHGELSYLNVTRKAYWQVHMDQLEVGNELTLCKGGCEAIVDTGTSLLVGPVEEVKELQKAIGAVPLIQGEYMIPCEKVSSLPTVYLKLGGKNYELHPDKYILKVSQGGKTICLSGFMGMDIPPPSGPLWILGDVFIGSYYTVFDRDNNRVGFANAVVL
T2 sequence (P07339 65-412): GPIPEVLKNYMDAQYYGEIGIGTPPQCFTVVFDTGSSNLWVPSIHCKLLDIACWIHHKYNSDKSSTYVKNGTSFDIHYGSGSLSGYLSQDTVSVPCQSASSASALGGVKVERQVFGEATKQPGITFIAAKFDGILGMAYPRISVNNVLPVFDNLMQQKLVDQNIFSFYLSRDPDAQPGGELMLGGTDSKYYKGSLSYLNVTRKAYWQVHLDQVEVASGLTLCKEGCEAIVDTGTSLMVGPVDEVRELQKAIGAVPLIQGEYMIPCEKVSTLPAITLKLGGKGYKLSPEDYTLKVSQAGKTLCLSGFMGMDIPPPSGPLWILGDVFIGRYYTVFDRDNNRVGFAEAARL
T4 sequence (P24268 65-407): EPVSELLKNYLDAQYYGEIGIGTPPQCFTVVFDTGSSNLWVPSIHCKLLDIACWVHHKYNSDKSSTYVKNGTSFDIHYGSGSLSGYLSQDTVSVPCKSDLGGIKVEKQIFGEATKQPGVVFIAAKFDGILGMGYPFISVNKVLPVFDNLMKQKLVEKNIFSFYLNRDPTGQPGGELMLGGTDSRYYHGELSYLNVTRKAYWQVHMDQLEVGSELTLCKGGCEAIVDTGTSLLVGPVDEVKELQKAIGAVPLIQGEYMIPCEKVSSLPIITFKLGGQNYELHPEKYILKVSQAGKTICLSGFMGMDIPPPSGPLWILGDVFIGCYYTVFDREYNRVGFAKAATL

Compound: C[N+](C)(C)[BH2-]C#N [Compound 2, Trimethylamine-cyanoborane]
- Calcium serum (Calcium): 109.7 % Control
- Calcium urine (Calcium): 50.8 % Control
- Phosphorus serum (Phosphorus): 81.6 % Control
- Phosphorus urine (Phosphorus): 39.6 % Control
- pIC50 (Cathepsin [1]): 4.11
- pIC50 (Acid phosphatase [2]): 4.80
- response vs control in vivo (Cf1 male mice [3]): 18%
- pIC50 [4]: 5.23
- pIC50 (Acid phosphatase [5]): 5.98
- LD50 at 336 h (in vivo): 70 mg/kg
- Writhing (Cf1 male mice [6]): 18 % Control
- pIC50 (Aryl sulphatase [7]): 5.03
- Mouse Liver Acid Phosph. (Acid phosphatase [8]; 5 × 10^-6 M, N=6, 5 µM): 69 + 4 % Control
- pIC50 (Acid phosphatase [8]): 5.45
- pIC50 (Trypsin [9]): 5.85
- pIC50 (Elastase [10]): 5.87
- pIC50 (Prostaglandin synthetase): 5.23
- Rat PMNs Acid Phoph. (Acid phosphatase [11]): 35 + 5 % Control
- pIC50 (Trypsin [12]): 5.40
- Hepatic Oxidative Phosphorylation Succinate State 3 [13]: 51 + 20 % Control
- Hepatic Oxidative Phosphorylation Succinate State 4 [13]: 133 + 20 % Control
- Hepatic Oxidative Phosphorylation alpha-Ketoglutrate State 3 [13]: 41 + 9 % Control
- Hepatic Oxidative Phosphorylation alpha-Ketoglutrate State 4 [13]: 85 + 21 % Control
- Anti-arthritic (Sprague Dawley male rats [14]): 4 % Control
- pIC50 (Cathepsin D [15]): 5.70
- activity at 5 µM (Cathepsin D [16]; pH 5, read-out: Mouse Liver Cathep.): 6%
- pIC50 (Cathepsin D [16]): 6.14
- activity at 5 µM (Cathepsin [17]): 4%
- pIC50 (Aryl sulphatase [18]): 5.05
- pIC50 (Elastase [19]): 5.48
- PMNs cAMP (cAMP): 245 % Control
- pIC50 [20]: 5.37
- Anti-pleurisy (Sprague Dawley male rats [21]): 65 % Control
- Anti-inflammatory (Cf1 male mice [22]): 42 % Control
- Hydroxyproline serum (Hydroxyproline): 71.7 % Control
- Hydroxyproline urine (Hydroxyproline): 42.5 % Control
- Anti-Inflammatory Activity Sprague Dawley Rats (Sprague Dawley Rats): 65 % Control

Compound: C[B-](C#N)(C#N)[N+](C)(C)C [Compound 16, Trimethylamine-methyldicyanoborane]
- pIC50 (Cathepsin [1]): 4.19
- response vs control in vivo (Cf1 male mice [3]): 33.9%
- pIC50 [4]: 5.52
- pIC50 (Acid phosphatase [5]): 5.96
- pIC50 (Aryl sulphatase [7]): 5.07
- pIC50 (Trypsin [9]): 5.79
- pIC50 [23]: 3.96
- pIC50 (Elastase [10]): 5.69
- pIC50 (Trypsin [12]): 5.47
- pIC50 (Elastase [19]): 5.44
- pIC50 [20]: 5.03

Compound: C[NH+](C)[BH2-]C#N [Compound 10, Dimethylamine-cyanoborane]
- pIC50 (Cathepsin [1]): 4.27
- pIC50 (Acid phosphatase [2]): 5.06
- response vs control in vivo (Cf1 male mice [3]): 14.7%
- pIC50 [4]: 5.23
- pIC50 (Acid phosphatase [5]): 5.95
- pIC50 (Aryl sulphatase [7]): 5.05
- pIC50 (5'-lipoxygenase): 4.64
- pIC50 (Acid phosphatase [8]): 5.05
- pIC50 (Trypsin [9]): 5.61
- pIC50 [23]: 3.97
- pIC50 (Elastase [10]): 5.60
- pIC50 (Trypsin [12]): 5.19
- pIC50 (Cathepsin D [15]): 5.89
- pIC50 (Cathepsin D [16]): 5.49
- pIC50 (Aryl sulphatase [18]): 5.10
- pIC50 (Elastase [19]): 5.47
- pIC50 [20]: 5.25
- Anti-Inflammatory Activity Sprague Dawley Rats (Sprague Dawley Rats): 61 % Control

Compound: O.O.O.O.O.O.O.O.O.O.[Na+].[Na+].[O-]B1OB2OB([O-])OB(O1)O2 [sodium borate]
- urinary excretion of calcium, magnesium and perhaps phosphorus [24]: blocks the urinary excretion of calcium, magnesium and perhaps phosphorus
